The record followed here is ChEMBL document CHEMBL1143470, “Synthesis and anticonvulsant activity of 7-alkoxyl-4,5-dihydro-[1,2,4]triazolo[4,3-a]quinolines” (Bioorg Med Chem Lett, 2005).

Broadly, the ED50 is the dose at which the effect has come halfway, by size or by number of responders. Low readings indicate greater potency, high ones weaker potency.

The species named for the first data set is Mus musculus. Description: Concentration of compound producing anticonvulsant drug-inducedneurologic deficit after 0.5 hrs done by rotarod ataxia test in mouse. The settings on record: in vivo. In general terms: The rotarod test checks motor coordination on a turning rod.
The compound `COc1ccc(COc2ccc3c(c2)CCc2nncn2-3)cc1` came in with a Dose of 300 mg/kg.
Take `CCCCCCOc1ccc2c(c1)CCc1nncn1-2`: the Dose came out at 100 mg/kg.
`c1cc2c(cc1COc1ccc3c(c1)CCc1nncn1-3)OCO2` returned a Dose of 300 mg/kg.
Compound `Brc1cccc(COc2ccc3c(c2)CCc2nncn2-3)c1` came in with a Dose of 100 mg/kg.
On the same count and under the same terms, with `CCCOc1ccc2c(c1)CCc1nncn1-2` the figure was 100 mg/kg; with `c1ccc(COc2ccc3c(c2)CCc2nncn2-3)cc1`, 100 mg/kg.
Still for that read-out and setting: with `Cc1ccc(COc2ccc3c(c2)CCc2nncn2-3)cc1` the figure was 100 mg/kg; with `CCCCOc1ccc2c(c1)CCc1nncn1-2`, 100 mg/kg.

For another data set, the species on record is Mus musculus. Description: Concentration producing anticonvulsant drug-induced neurologic deficit after 4 hrs done by rotarod ataxia test in mouse; na=no activity. The class given is functional, organism-based.
Settings: not given
In the case of `Clc1ccc(COc2ccc3c(c2)CCc2nncn2-3)cc1`, the DOSE entry was “No activity”.
With `CCCCCCCCCCCCOc1ccc2c(c1)CCc1nncn1-2`, the DOSE entry is “No activity”.
As for `COc1ccc(COc2ccc3c(c2)CCc2nncn2-3)cc1`, the DOSE result is “No activity”.
Turning to `CCCCCCOc1ccc2c(c1)CCc1nncn1-2`, the DOSE result was “No activity”.
Take `c1cc2c(cc1COc1ccc3c(c1)CCc1nncn1-3)OCO2`: the DOSE result is “No activity”.
Consider `Brc1cccc(COc2ccc3c(c2)CCc2nncn2-3)c1`, for which the DOSE result was “No activity”.
Same read-out and setting: with `CCCOc1ccc2c(c1)CCc1nncn1-2` the entry was “No activity”; with `c1ccc(COc2ccc3c(c2)CCc2nncn2-3)cc1`, “No activity”.
On the same count and under the same terms, with `Cc1ccc(COc2ccc3c(c2)CCc2nncn2-3)cc1` the entry was “No activity”.
Regarding `CCCCOc1ccc2c(c1)CCc1nncn1-2`, the DOSE entry is “No activity”.

Another data set is filed under the species Mus musculus. Description: Concentration of compound producing anticonvulsant drug-induced neurologic deficit after 0.5 hrs done by rotarod ataxia test in mouse; na=no activity. The class given is functional, organism-based.
Settings: not given
On to `Clc1ccc(COc2ccc3c(c2)CCc2nncn2-3)cc1`, for which the DOSE result is “No activity”.
In the case of `CCCCCCCCCCCCOc1ccc2c(c1)CCc1nncn1-2`, the DOSE result was “No activity”.

Another data set is filed under the species Mus musculus. Description: Protective index (TD50/ED50) produced by compound in mouse after MES test.
Settings: not given
With `CCCCCCOc1ccc2c(c1)CCc1nncn1-2`, the PI was 2.2.
The compound `Brc1cccc(COc2ccc3c(c2)CCc2nncn2-3)c1` displayed a PI of 4.2.
In turn, `c1ccc(COc2ccc3c(c2)CCc2nncn2-3)cc1` registered a PI of 3.5.
The same measure, in the same setting: with `Cc1ccc(COc2ccc3c(c2)CCc2nncn2-3)cc1` the figure was 3.2.

The test system of a further data set is Mus musculus. Description: Anticonvulsant activity of compound expressed in terms of median effective dose (ED50) produced after ScMet test in mouse by i.p. administration (range 21.4-28.2). The settings on record: ip.
As for `Brc1cccc(COc2ccc3c(c2)CCc2nncn2-3)c1`, it took a dose of 24.5 mg/kg to reach the 50% effect level (ED50).

In another data set the test system is Mus musculus. Put plainly: Anticonvulsant activity of compound expressed in terms of median effective dose (ED50) produced after ScMet test in mouse by i.p. administration (range 9.3-13.1). The settings on record: ip.
In the case of `Cc1ccc(COc2ccc3c(c2)CCc2nncn2-3)cc1`, the ED50 was determined as 11.1 mg/kg.

The species entered for the next data set is Mus musculus. Description: Protective index (TD50/ED50) produced by compound in mouse after ScMet test.
Settings: not given
`CCCCCCOc1ccc2c(c1)CCc1nncn1-2` displayed a PI of 1.7.
On the same count and under the same terms, for `Brc1cccc(COc2ccc3c(c2)CCc2nncn2-3)c1` the value was 4; for `c1ccc(COc2ccc3c(c2)CCc2nncn2-3)cc1`, 2.6.
`Cc1ccc(COc2ccc3c(c2)CCc2nncn2-3)cc1` registered a PI of 5.9.

The next data set has as its system Mus musculus. Description: Concentration producing seizure after 0.5 hrs tested by MES (Maximal ElectroShock test) done after 30 min of administration in mouse; na=no activity. The class given is functional, organism-based.
Settings: not given
For orientation: Protection in the maximal electroshock model is a classic sign of anticonvulsant action.
Turning to `CCCCCCCCCCCCOc1ccc2c(c1)CCc1nncn1-2`, the DOSE result was “No activity”.

In a further data set the test system is Mus musculus. Put plainly: Anticonvulsant activity of compound expressed in terms of median effective dose (ED50) produced after MES test in mouse by i.p. administration (range 11.5-15.8). The settings on record: ip.
Compound `CCCCCCOc1ccc2c(c1)CCc1nncn1-2` registered a median effective dose (ED50) of 13.5 mg/kg.

The test system of a further data set is Mus musculus. Put plainly: Anticonvulsant activity of compound expressed in terms of median effective dose (ED50) produced after MES test in mouse by i.p. administration (range 17-24.5). The settings on record: ip.
Consider `Cc1ccc(COc2ccc3c(c2)CCc2nncn2-3)cc1`, for which the ED50 amounted to 20.5 mg/kg.

The subject of the next data set is Mus musculus. Description: Concentration producing seizure after 0.5 hrs tested by MES (Maximal ElectroShock test) done after 30 min of administration in mouse.
Settings: not given
For `Clc1ccc(COc2ccc3c(c2)CCc2nncn2-3)cc1`, the Dose came to 300 mg/kg.
In turn, `COc1ccc(COc2ccc3c(c2)CCc2nncn2-3)cc1` had a Dose of 100 mg/kg.
`CCCCCCOc1ccc2c(c1)CCc1nncn1-2` returned a Dose of 30 mg/kg.
On the same count and under the same terms, for `c1cc2c(cc1COc1ccc3c(c1)CCc1nncn1-3)OCO2` the value was 100 mg/kg.
In turn, `Brc1cccc(COc2ccc3c(c2)CCc2nncn2-3)c1` yielded a Dose of 30 mg/kg.
Consider `CCCOc1ccc2c(c1)CCc1nncn1-2`, for which the Dose is 100 mg/kg.
Same read-out and setting: with `c1ccc(COc2ccc3c(c2)CCc2nncn2-3)cc1` the figure was 30 mg/kg; with `Cc1ccc(COc2ccc3c(c2)CCc2nncn2-3)cc1`, 30 mg/kg; with `CCCCOc1ccc2c(c1)CCc1nncn1-2`, 100 mg/kg.

The test system of the next data set is Mus musculus. Put plainly: Concentration producing seizure after 0.5 hrs tested by ScMet (Subcutaneous pentylenetetrazole test) done after 30 min of administration of 85 mg/kg pentylenetetrazol in mouse.
Settings: not given
`Clc1ccc(COc2ccc3c(c2)CCc2nncn2-3)cc1` gave a Dose of 300 mg/kg.
Compound `COc1ccc(COc2ccc3c(c2)CCc2nncn2-3)cc1` yielded a Dose of 100 mg/kg.
`CCCCCCOc1ccc2c(c1)CCc1nncn1-2` gave a Dose of 30 mg/kg.
`c1cc2c(cc1COc1ccc3c(c1)CCc1nncn1-3)OCO2` returned a Dose of 100 mg/kg.
On the same count and under the same terms, for `Brc1cccc(COc2ccc3c(c2)CCc2nncn2-3)c1` the value was 30 mg/kg; for `CCCOc1ccc2c(c1)CCc1nncn1-2`, 100 mg/kg.
Take `c1ccc(COc2ccc3c(c2)CCc2nncn2-3)cc1`: the Dose is 100 mg/kg.
`Cc1ccc(COc2ccc3c(c2)CCc2nncn2-3)cc1` returned a Dose of 30 mg/kg.
Take `CCCCOc1ccc2c(c1)CCc1nncn1-2`: the Dose was found to be 100 mg/kg.

The next data set has as its system Mus musculus. Put plainly: Anticonvulsant activity of compound expressed in terms of median effective dose (ED50) produced after ScMet test in mouse by i.p. administration (range 21.6-26.7). The settings on record: ip.
For the compound `c1ccc(COc2ccc3c(c2)CCc2nncn2-3)cc1`, the 50% effect level (ED50) was put at a dose of 24 mg/kg.

The next data set has as its system Mus musculus. Put plainly: Anticonvulsant activity of compound expressed in terms of median effective dose (ED50) produced after ScMet test in mouse by i.p. administration (range 12.5-20.6). The settings on record: ip.
Consider `CCCCCCOc1ccc2c(c1)CCc1nncn1-2`, for which the ED50 worked out at 17.7 mg/kg.

The next data set has as its system Mus musculus. Description: Concentration producing seizure after 4 hrs tested by ScMet (Subcutaneous pentylenetetrazole test) done after 30 min of administration of 85 mg/kg pentylenetetrazol in mouse; na=no activity. More on the design: dose 85 mg/kg.
Settings: not given
The class given is functional, organism-based.
Consider `Clc1ccc(COc2ccc3c(c2)CCc2nncn2-3)cc1`, for which the DOSE entry is “No activity”.
Consider `CCCCCCCCCCCCOc1ccc2c(c1)CCc1nncn1-2`, for which the DOSE result is “No activity”.
On the same count and under the same terms, with `COc1ccc(COc2ccc3c(c2)CCc2nncn2-3)cc1` the entry was “No activity”; with `CCCCCCOc1ccc2c(c1)CCc1nncn1-2`, “No activity”; with `c1cc2c(cc1COc1ccc3c(c1)CCc1nncn1-3)OCO2`, “No activity”.
In the case of `Brc1cccc(COc2ccc3c(c2)CCc2nncn2-3)c1`, the DOSE entry was “No activity”.
`CCCOc1ccc2c(c1)CCc1nncn1-2`: the DOSE result was “No activity”.
Turning to `c1ccc(COc2ccc3c(c2)CCc2nncn2-3)cc1`, the DOSE result was “No activity”.
`Cc1ccc(COc2ccc3c(c2)CCc2nncn2-3)cc1`: the DOSE entry was “No activity”.
For `CCCCOc1ccc2c(c1)CCc1nncn1-2`, the DOSE result was “No activity”.

A further data set relates to Mus musculus. Description: Anticonvulsant activity of compound expressed in terms of median effective dose (ED50) produced after MES test in mouse by i.p. administration (range 14.8-20.4). The settings on record: ip.
With `c1ccc(COc2ccc3c(c2)CCc2nncn2-3)cc1`, the 50% effect level (ED50) was put at a dose of 17.3 mg/kg.

In a further data set the test system is Mus musculus. Put plainly: Concentration producing seizure after 4 hrs tested by MES (Maximal ElectroShock test) done after 30 min of administration in mouse; na=no activity. The class given is functional, organism-based.
Settings: not given
With `Clc1ccc(COc2ccc3c(c2)CCc2nncn2-3)cc1`, the DOSE entry is “No activity”.
For the compound `CCCCCCCCCCCCOc1ccc2c(c1)CCc1nncn1-2`, the DOSE entry was “No activity”.
On to `COc1ccc(COc2ccc3c(c2)CCc2nncn2-3)cc1`, for which the DOSE entry is “No activity”.
With `CCCCCCOc1ccc2c(c1)CCc1nncn1-2`, the DOSE result was “No activity”.
Same read-out and setting: with `c1cc2c(cc1COc1ccc3c(c1)CCc1nncn1-3)OCO2` the entry was “No activity”.
In the case of `Brc1cccc(COc2ccc3c(c2)CCc2nncn2-3)c1`, the DOSE result was “No activity”.
For `CCCOc1ccc2c(c1)CCc1nncn1-2`, the DOSE entry was “No activity”.
On to `c1ccc(COc2ccc3c(c2)CCc2nncn2-3)cc1`, for which the DOSE entry is “No activity”.
With `Cc1ccc(COc2ccc3c(c2)CCc2nncn2-3)cc1`, the DOSE entry is “No activity”.
On to `CCCCOc1ccc2c(c1)CCc1nncn1-2`, for which the DOSE entry is “No activity”.

The next data set has as its system Mus musculus. Put plainly: Concentration producing seizure after 0.5 hrs tested by ScMet (Subcutaneous pentylenetetrazole test) done after 30 min of administration of 85 mg/kg pentylenetetrazol in mouse; na=no activity. On the set-up: dose 85 mg/kg.
Settings: not given
The class given is functional, organism-based.
For the compound `CCCCCCCCCCCCOc1ccc2c(c1)CCc1nncn1-2`, the DOSE result is “No activity”.

A further data set concerns Mus musculus. Description: Anticonvulsant activity of compound expressed in terms of median effective dose (ED50) produced after MES test in mouse by i.p. administration (range 19.5-28). The settings on record: ip.
Take `Brc1cccc(COc2ccc3c(c2)CCc2nncn2-3)c1`: it took a dose of 23.3 mg/kg to reach the 50% effect level (ED50).
